From EPA's ToxValDB 9.5 (doi:10.2903/j.efsa.2013.3373) come the findings set out here.

Each structure is given as a SMILES string. Several values for one entry are separate records, joined by “and”; a condition that tells them apart may be missing. Identical values can stand only once.

In one data set the test system is Mus musculus. The following applies: acute, oral, mortality.
A further data set concerns Oncorhynchus mykiss. The note with it: mortality.
For the next data set, the system named is Chironomus tentans. The note with it: acute; duration: 10 days; mortality.
In a further data set the test system is Cyprinodon variegatus. The following applies: chronic/long-term; duration: 41 days; mortality.
In another data set the test system is Apis mellifera. The note with it: acute, duration: 96 hours, mortality.
The test system of another data set is Bibionidae. The following applies: chronic/long-term; duration: 28 days; development.
A further data set relates to Neomysis kadiakensis. The note with it: chronic/long-term; duration: 28 days; reproduction.
The test system of another data set is Danio rerio. The following applies: chronic; duration: 148 days.
Another data set deals with Canidae. The following applies: subchronic; duration: 3 months; oral; gavage; Dog Other; organ weight.
For a further data set, the system named is Daphnia magna. The note with it: chronic/long-term; duration: 21 days; reproduction.
The test system of a further data set is Rattus norvegicus. The note with it: for NOAEL: reproduction developmental.
In another data set the test system is Colinus virginianus. The note with it: for LD50: acute, oral, mortality.

For the compound `N#Cc1ccc(CC(=NNC(=O)Nc2ccc(OC(F)(F)F)cc2)c2cccc(C(F)(F)F)c2)cc1` (mixture of isomers) [Metaflumizone], the LD50 with Mus musculus (duration: 7 days, diet) was 101 mg/kg-day; in the data set on Mus musculus it was > 5000 mg/kg-day; with Apis mellifera (dermal), 1.65 µg/piece; with Apis mellifera (oral, unspecified) it was 2.43 µg/piece; with Anas platyrhynchos (acute, oral, unspecified, mortality) it was > 2020 mg/kg-day; with Rattus norvegicus (acute, oral, mortality), > 5000 mg/kg-day. Also, the LD50 in the data set on Colinus virginianus (diet) was 306 mg/kg-day; in the data set on Colinus virginianus, > 2020 mg/kg-day. Moreover, the LC50 is > 0.228 µg/mL with Oncorhynchus mykiss (acute, duration: 96 hours); 1800 µg/kg with Chironomus tentans; > 1000 mg/kg in the data set on Tagia sp. (acute, duration: 14 days, mortality). The NOEC is 1.47 µg/L with Oncorhynchus mykiss (chronic/long-term, duration: 93 days); 1.15 µg/L with Cyprinodon variegatus; 2.56 µg/L with Bibionidae; 6.92 mg/kg in the data set on Tagia sp. (chronic/long-term); 0.654 µg/L in the data set with Neomysis kadiakensis; 0.015 mg/L with Danio rerio. This compound had an NOEC in the data set with Daphnia magna of 1.47 µg/L. The NOEL in the data set with Anas platyrhynchos (reproductive, reproduction) is < 4.4 mg/kg-day and 1.8 mg/kg-day; in the data set with Colinus virginianus (reproduction developmental, reproduction), 0.53 mg/kg-day. Moreover, the results for the NOAEL in the data set with Canidae, in the data set with Rattus norvegicus (body weight) and in the data set with Rattus norvegicus (reproduction) were 6 mg/kg-day, 40 mg/kg-day and 20 mg/kg-day, respectively.
